Measured values published in ChEMBL document CHEMBL4219114, “Aralkyl selenoglycosides and related selenosugars in acetylated form activate protein phosphatase-1 and -2A” (Bioorg Med Chem, 2018).
Activity calls are given as the source filed them. The rule behind the calls is not given here.

Experiments:
Oryctolagus cuniculus [1] = organism: Oryctolagus cuniculus; assay: Activation of rabbit skeletal muscle PP1 catalytic subunit at 19 to 395 uM using [32P]MLC20 as substrate pretreated for 10 mins followed by substrate addition measured after 10 mins by scintillation counting method relative to control
Oryctolagus cuniculus [2] = organism: Oryctolagus cuniculus; assay: Activation of rabbit skeletal muscle PP2A catalytic subunit at 19 to 395 uM using [32P]MLC20 as substrate pretreated for 10 mins followed by substrate addition measured after 10 mins by scintillation counting method relative to control
[3] = Activation of rabbit skeletal muscle PP1 catalytic subunit using [32P]MLC20 as substrate pretreated for 10 mins followed by substrate addition measured after 10 mins by scintillation counting method relative to control; design: species or system Oryctolagus cuniculus
[4] = Activation of rabbit skeletal muscle PP2A catalytic subunit using [32P]MLC20 as substrate pretreated for 10 mins followed by substrate addition measured after 10 mins by scintillation counting method relative to control; design: species or system Oryctolagus cuniculus
HeLa [5] = assay: Activation of PP1 catalytic subunit/PP2A catalytic subunit in human HeLa cells using [32P]MLC20 as substrate pretreated for 1 hr followed by substrate addition measured after 30 secs by scintillation counting method; format: cell-based
HeLa [6] = assay: Cytotoxicity against human HeLa cells assessed as reduction in cell viability at >200 uM after 24 hrs by Alamar blue assay; format: functional, cell-based
[7] = Inhibition of rabbit skeletal muscle PP1 catalytic subunit at 19 to 395 uM using [32P]MLC20 as substrate pretreated for 10 mins followed by substrate addition measured after 10 mins by scintillation counting method; design: species or system Oryctolagus cuniculus
[8] = Inhibition of rabbit skeletal muscle PP2A catalytic subunit at 19 to 395 uM using [32P]MLC20 as substrate pretreated for 10 mins followed by substrate addition measured after 10 mins by scintillation counting method relative to control; design: species or system Oryctolagus cuniculus
Oryctolagus cuniculus [9] = organism: Oryctolagus cuniculus; assay: Activation of rabbit skeletal muscle PP1 catalytic subunit at 395 uM using [32P]MLC20 as substrate pretreated for 10 mins followed by substrate addition measured after 10 mins in presence of 10 to 25 uM MYPT1 (23 to 38 residues) peptide by scintillation counting method
Oryctolagus cuniculus [10] = organism: Oryctolagus cuniculus; assay: Activation of rabbit skeletal muscle PP2A catalytic subunit at 395 uM using [32P]MLC20 as substrate pretreated for 10 mins followed by substrate addition measured after 10 mins in presence of 10 uM MYPT1 (23 to 38 residues) peptide by scintillation counting method relative to control
[11] = molecular target: Serine/threonine-protein phosphatase PP1-beta catalytic subunit (Homo sapiens) (UniProt P62140); assay: Binding affinity to full length recombinant human N-terminal His6-tagged PP1cdelta expressed in Escherichia coli M15 assessed as inhibition of protein interaction with GST-tagged MYPT1 at 10 to 50 uM by surface plasmon resonance method
HeLa [12] = assay: Activation of PP1 catalytic subunit/PP2A catalytic subunit in human HeLa cells at >100 uM using [32P]MLC20 as substrate pretreated for 1 hr followed by substrate addition measured after 30 secs by scintillation counting method; format: cell-based
HeLa [13] = assay: Activation of PP1 catalytic subunit/PP2A catalytic subunit in human HeLa cells at 395 uM using [32P]MLC20 as substrate pretreated for 1 hr followed by substrate addition measured after 30 secs by scintillation counting method; format: cell-based

Sequence of Serine/threonine-protein phosphatase PP1-beta catalytic subunit (Homo sapiens) (P62140 whole entry): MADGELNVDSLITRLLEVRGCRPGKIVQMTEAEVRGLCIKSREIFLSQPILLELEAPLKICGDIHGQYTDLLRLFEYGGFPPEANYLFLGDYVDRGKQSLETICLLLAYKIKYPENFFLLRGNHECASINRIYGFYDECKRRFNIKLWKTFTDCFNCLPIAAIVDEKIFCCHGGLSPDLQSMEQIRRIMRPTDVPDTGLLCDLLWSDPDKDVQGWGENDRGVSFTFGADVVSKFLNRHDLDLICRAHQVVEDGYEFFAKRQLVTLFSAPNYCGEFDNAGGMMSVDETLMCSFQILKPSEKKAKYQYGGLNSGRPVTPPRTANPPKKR

| Structure (SMILES) | EC50 [3] [µM] | EC50 [4] [µM] | Activity (Oryctolagus cuniculus [1]) | Activity (Oryctolagus cuniculus [2]) | inhibition (INH) [7] | inhibition (INH) [8] | other results |
| --- | --- | --- | --- | --- | --- | --- | --- |
| CC(=O)OC[C@H]1O[C@@H]([Se]c2ccccc2)[C@H](OC(C)=O)[C@@H](OC(C)=O)[C@@H]1OC(C)=O | 291 | 84.8 |  |  |  |  | fold change (FC) (Oryctolagus cuniculus [1]): 4; fold change (FC) (Oryctolagus cuniculus [2]): 4 |
| OC[C@H]1O[C@@H]([Se]Cc2ccccc2C(F)(F)F)[C@H](O)[C@@H](O)[C@@H]1O |  |  | inactive | inactive |  |  | Activity (HeLa [5]): inactive; Activity (HeLa [6]): Active |
| CC(=O)OC[C@H]1O[C@@H]([Se]C(=O)c2ccc(Cl)cc2)[C@H](OC(C)=O)[C@@H](OC(C)=O)[C@@H]1OC(C)=O |  |  | Active | Active | Active | Active |  |
| CC(=O)OC[C@H]1O[C@@H]([Se]Cc2ccccc2)[C@H](OC(C)=O)[C@@H](OC(C)=O)[C@@H]1OC(C)=O |  |  | Active | Active |  |  | Activity (HeLa [6]): Active |
| OC[C@H]1O[C@@H]([Se]Cc2ccccc2)[C@H](O)[C@@H](O)[C@@H]1O |  |  | inactive | inactive |  |  | Activity (HeLa [5]): inactive; Activity (HeLa [6]): Active |
| CC(=O)OC[C@H]1O[C@@H]([Se]Cc2ccccc2C(F)(F)F)[C@H](OC(C)=O)[C@@H](OC(C)=O)[C@@H]1OC(C)=O | 233 | 83.5 | Active | Active |  |  | Activity (Oryctolagus cuniculus [9]): inactive; Activity (Oryctolagus cuniculus [10]): Active; Activity [11]: Active; Activity (HeLa [12]): Active; Activity (HeLa [6]): Active |
| CC(=O)OC[C@H]1O[C@@H]([Se]Cc2ccc([N+](=O)[O-])cc2)[C@H](OC(C)=O)[C@@H](OC(C)=O)[C@@H]1OC(C)=O |  |  | inactive | inactive | Active |  |  |
| COc1ccc(C[Se][C@@H]2O[C@H](COC(C)=O)[C@@H](OC(C)=O)[C@H](OC(C)=O)[C@H]2OC(C)=O)cc1 | 222 | 119 | Active | Active |  |  |  |
| CC(=O)N[C@@H]1[C@@H](OC(C)=O)[C@H](OC(C)=O)[C@@H](COC(C)=O)O[C@H]1[Se]c1ccc([N+](=O)[O-])cn1 |  |  | inactive | inactive | Active | Active |  |
| CC(=O)OC[C@H]1O[C@@H]([Se]CCc2ccccc2)[C@H](OC(C)=O)[C@@H](OC(C)=O)[C@@H]1OC(C)=O | 171 | 104 |  |  |  |  | fold change (FC) (Oryctolagus cuniculus [1]): 4; fold change (FC) (Oryctolagus cuniculus [2]): 4 |
| CC(=O)OC[C@H]1O[C@@H]([Se]C(=O)c2ccc(C)cc2)[C@H](OC(C)=O)[C@@H](OC(C)=O)[C@@H]1OC(C)=O |  |  | Active | Active | Active | Active |  |
| CC(=O)OC[C@H]1O[C@@H]([Se]Cc2ccc(Br)cc2)[C@H](OC(C)=O)[C@@H](OC(C)=O)[C@@H]1OC(C)=O | 108 | 119 | Active | Active |  |  | Activity (Oryctolagus cuniculus [9]): inactive; Activity (Oryctolagus cuniculus [10]): Active; Activity [11]: Active; Activity (HeLa [13]): Active |
| CC(=O)OC[C@H]1O[C@@H]([Se]c2ccc([N+](=O)[O-])cn2)[C@H](OC(C)=O)[C@@H](OC(C)=O)[C@@H]1OC(C)=O |  |  | inactive | inactive | Active | Active |  |
| CC(=O)OC[C@H]1O[C@@H]([Se]C(=O)c2ccccc2)[C@H](OC(C)=O)[C@@H](OC(C)=O)[C@@H]1OC(C)=O |  |  |  | inactive | Active | Active | fold change (FC) (Oryctolagus cuniculus [1]): 2 |
| CC(=O)OC[C@H]1O[C@@H]([Se]c2ccc([N+](=O)[O-])cc2[N+](=O)[O-])[C@H](OC(C)=O)[C@@H](OC(C)=O)[C@@H]1OC(C)=O |  |  | inactive | inactive | Active | Active |  |
| CC(=O)N[C@@H]1[C@@H](OC(C)=O)[C@H](OC(C)=O)[C@@H](COC(C)=O)O[C@H]1[Se]C(=O)c1ccc(C)cc1 |  |  | Active | Active | Active | Active |  |
